Measured values: doi:10.1101/2025.03.31.646301v1, “Discovery of Tankyrase scaffolding inhibitor specifically targeting the ARC4 peptide binding domain” (biorxiv, 2025)

How the values were obtained:
TNKS1 ARC2-3 = molecular target: T1, TNKS1 ARC2-3 (Homo sapiens, UniProt O95271); assay: FRET displacement of YFP-REAGDGEE peptide from CFP-ARC; assay type: binding
T1 construct: gene TNKS; ankyrin repeat clusters 2-3, 6xHis-mCerulean (CFP) fusion, E. coli
T1 sequence (O95271 336-649 limits assumed): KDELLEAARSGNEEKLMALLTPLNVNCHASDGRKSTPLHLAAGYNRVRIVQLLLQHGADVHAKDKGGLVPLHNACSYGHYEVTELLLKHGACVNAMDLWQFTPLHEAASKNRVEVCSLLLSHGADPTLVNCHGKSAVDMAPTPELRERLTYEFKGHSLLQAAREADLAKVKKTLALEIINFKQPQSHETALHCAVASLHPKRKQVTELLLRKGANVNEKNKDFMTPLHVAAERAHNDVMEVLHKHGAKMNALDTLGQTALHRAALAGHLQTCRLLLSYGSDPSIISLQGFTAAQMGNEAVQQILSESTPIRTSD
Source text: FRET displacement of YFP-REAGDGEE peptide from CFP-ARC on TNKS1 ARC2-3

TNKS2 ARC2 = molecular target: T2, TNKS2 ARC2 (Homo sapiens, UniProt Q9H2K2); assay: as above; assay type: binding
T2 construct: ankyrin repeat cluster 2 domain, 6xHis-mCerulean (CFP) fusion, E. coli
T2 sequence (Q9H2K2 173-329 limits assumed): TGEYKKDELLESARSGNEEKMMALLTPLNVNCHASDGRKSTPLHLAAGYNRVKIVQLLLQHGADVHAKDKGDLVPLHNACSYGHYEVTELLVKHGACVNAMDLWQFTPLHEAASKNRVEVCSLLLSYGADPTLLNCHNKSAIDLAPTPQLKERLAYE
Source text: FRET displacement of YFP-REAGDGEE peptide from CFP-ARC on TNKS2 ARC2

TNKS1 ARC1 = molecular target: T3, TNKS1 ARC1 (Homo sapiens, UniProt O95271); assay: as above; assay type: binding
T3 construct: gene TNKS; ankyrin repeat cluster 1 domain, 6xHis-mCerulean (CFP) fusion, E. coli
T3 sequence (O95271 173-336 limits assumed): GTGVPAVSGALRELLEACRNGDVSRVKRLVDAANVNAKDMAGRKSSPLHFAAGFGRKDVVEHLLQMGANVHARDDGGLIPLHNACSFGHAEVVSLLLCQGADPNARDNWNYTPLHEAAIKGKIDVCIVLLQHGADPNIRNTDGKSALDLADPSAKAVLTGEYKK
Source text: FRET displacement of YFP-REAGDGEE peptide from CFP-ARC on TNKS1 ARC1

TNKS1 ARC5 = molecular target: T4, TNKS1 ARC5 (Homo sapiens, UniProt O95271); assay: as above; assay type: binding
T4 construct: gene TNKS; ankyrin repeat cluster 5 domain, 6xHis-mCerulean (CFP) fusion, E. coli
T4 sequence (O95271 806-966 limits assumed): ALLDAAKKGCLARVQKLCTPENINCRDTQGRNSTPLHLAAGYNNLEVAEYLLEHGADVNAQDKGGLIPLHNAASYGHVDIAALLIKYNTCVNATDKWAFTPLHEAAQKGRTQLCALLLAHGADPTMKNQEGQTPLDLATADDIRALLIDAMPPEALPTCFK
Source text: FRET displacement of YFP-REAGDGEE peptide from CFP-ARC on TNKS1 ARC5

TNKS2 ARC4 [1] = molecular target: T5, TNKS2 ARC4 (Homo sapiens, UniProt Q9H2K2); assay: as above; assay type: binding
T5 construct: ankyrin repeat cluster 4 domain; FRET: 6xHis-mCerulean (CFP) fusion; DSF, NMR, crystal: MBP and His tag cleaved by TEV, residues 487-649 printed for crystal; E. coli BL21(DE3)
T5 sequence (Q9H2K2 487-649): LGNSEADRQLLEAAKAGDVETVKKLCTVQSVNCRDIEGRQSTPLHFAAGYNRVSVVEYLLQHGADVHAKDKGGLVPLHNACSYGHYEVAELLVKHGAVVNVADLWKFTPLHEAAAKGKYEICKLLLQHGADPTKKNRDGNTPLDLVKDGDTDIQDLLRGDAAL

TNKS2 ARC5 = molecular target: T6, TNKS2 ARC5 (Homo sapiens, UniProt Q9H2K2); assay: as above; assay type: binding
T6 construct: ankyrin repeat cluster 5 domain, 6xHis-mCerulean (CFP) fusion, E. coli
T6 sequence (Q9H2K2 646-800 limits assumed): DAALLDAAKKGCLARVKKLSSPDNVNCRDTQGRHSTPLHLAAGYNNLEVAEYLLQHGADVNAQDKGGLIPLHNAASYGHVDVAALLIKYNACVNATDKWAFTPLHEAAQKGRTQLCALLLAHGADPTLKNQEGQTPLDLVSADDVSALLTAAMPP
Source text: FRET displacement of YFP-REAGDGEE peptide from CFP-ARC on TNKS2 ARC5

TNKS2 ARC1 = molecular target: T7, TNKS2 ARC1 (Homo sapiens, UniProt Q9H2K2); assay: as above; assay type: binding
T7 construct: ankyrin repeat cluster 1 domain, 6xHis-mCerulean (CFP) fusion, E. coli
T7 sequence (Q9H2K2 21-174 limits assumed): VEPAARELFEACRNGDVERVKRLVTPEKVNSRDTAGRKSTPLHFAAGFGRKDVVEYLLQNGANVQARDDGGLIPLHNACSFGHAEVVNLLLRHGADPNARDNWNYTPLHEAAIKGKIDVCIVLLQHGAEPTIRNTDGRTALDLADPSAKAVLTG
Source text: FRET displacement of YFP-REAGDGEE peptide from CFP-ARC on TNKS2 ARC1

TNKS1 ARC4 = molecular target: T8, TNKS1 ARC4 (Homo sapiens, UniProt O95271); assay: as above; assay type: binding
T8 construct: gene TNKS; ankyrin repeat cluster 4 domain, 6xHis-mCerulean (CFP) fusion, E. coli
T8 sequence (O95271 649-806 limits assumed): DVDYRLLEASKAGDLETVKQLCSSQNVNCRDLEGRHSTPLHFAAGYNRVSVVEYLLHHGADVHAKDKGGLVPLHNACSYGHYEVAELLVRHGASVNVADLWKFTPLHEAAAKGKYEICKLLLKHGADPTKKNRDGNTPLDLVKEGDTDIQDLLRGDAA
Source text: FRET displacement of YFP-REAGDGEE peptide from CFP-ARC on TNKS1 ARC4

TNKS2 ARC4 [2] = molecular target: T5, TNKS2 ARC4; assay: X-ray co-crystal structure; assay type: binding; details: residues 487-649, tag-free, pH 4.2; S enantiomer in TBM pocket, R enantiomer at crystal contacts
TNKS2 ARC4 [3] = molecular target: T5, TNKS2 ARC4; set-up: DSF thermal shift of TNKS2 ARC4, stabilization over DMSO control; details: binder
Source text: Given the notable stabilization of the pyrrolone-based compounds from the Commercials Diversity collection, we decided to focus on their common scaffold for compound optimization. Pyrrolone is indeed a versatile moiety that is largely employed for the design of compounds with a variety of biological effects.[55] The nine primary hits were acquired from commercial suppliers, they underwent quality control, additional DSF validation and determination of potency through FRET-based IC50 measurements (Table 1). All the tested compounds include a benzodioxane moiety (R[1]), a [compound left out] group with substitutions in the para position (R[2]), and an R[3] group with an aliphatic character and a tertiary amine. […] In addition, all molecules, except for 7, have IC50 values below 100 µM. Among the nine molecules, 1 performed the best in terms of stabilization of TNKS2 ARC4 and potency. […] In the same position, the presence of a hydrophobic methyl group (3, 4), other halogen substituents (5) and alkoxy groups (6–9) is also tolerated, even if not optimal. […] A SAR investigation was conducted with purchased and synthesized analogues of 1 through FRET-based potency measurements and DSF assay with TNKS2 ARC4 (Table 2, Table S2). All the compounds commercially acquired underwent quality control. […] Changes to the length of the aliphatic chain at R[3] greatly impacts both potency and protein stabilization. […] The diethylamino-based substituent at R[3] […] Compounds 25 and 26 further indicate that the presence of tertiary amine at R[3] is not necessary to achieve binding. […] 5 Figure S2. DSF assay results for validation of primary hits identified in the EU-OPENSCREEN Commercials Diversity Library. (A) and (B) show DSF assay validation measurements of TNKS2 ARC4 with primary hits from the Commercial Diversity Library. Compounds are tested at 100 μM. They are named after their EU-OPENSCREEN identity codes and the identities are available for consultation on ECBD. 1,2 (A) and (B) show results from two independent experiments. For each experiment, each compound was tested with a single measurement, while controls (TNKS2 ARC4 with 100 μM optimized peptide, TNKS2 ARC4 with 100 μM DMSO) are studied in at least four replicates and errors are shown. Moreover, stabilization over the control (TNKS2 ARC4 with DMSO) is indicated (ΔTm °C). […] It was not possible to measure the melting curve of TNKS2 ARC4 in presence of EOS21552, EOS54043, EOS54043.

| IC50 (TNKS1 ARC2-3) [µM] | IC50 (TNKS2 ARC2) [µM] | IC50 (TNKS1 ARC1) [µM] | IC50 (TNKS1 ARC5) [µM] | IC50 (TNKS2 ARC4 [1]) [µM] | IC50 (TNKS2 ARC5) [µM] | IC50 (TNKS2 ARC1) [µM] | IC50 (TNKS1 ARC4) [µM] | ΔTm ± SD (°C) (TNKS2 ARC4 [3]) | Compound | X-ray co-crystal structure (TNKS2 ARC4 [2]) |
| --- | --- | --- | --- | --- | --- | --- | --- | --- | --- | --- |
| > 1000 | > 1000 | > 1000 | > 1000 | 16 | > 1000 | > 1000 | 18 |  | CCN(CC)CCCN1C(=O)C(O)=C(C(=O)c2ccc3c(c2)OCCO3)C1c1ccc(O)cc1 (stereo not drawn) [compound 1, 1] |  |
| > 1000 | > 1000 | > 1000 | > 1000 |  |  |  | 9 | 2.44 ± 0.12 | CCC(CC)CCCN1C(=O)C(O)=C(C(=O)c2ccc3c(c2)OCCO3)[C@@H]1c1ccc(O)cc1 [S8] | we co-crystallized the compound displaying the best potency (S8) with TNKS2 ARC4 |
| > 1000 | > 1000 | > 1000 | > 1000 | 77 | > 1000 | > 1000 | 121 | 2.19 ± 0.31 | Cc1ccc(C2C(C(=O)c3ccc4c(c3)OCCO4)=C(O)C(=O)N2CCCN2CCOCC2)cc1 (stereo not drawn) [compound 4, 4] |  |
| > 1000 | > 1000 | > 1000 | > 1000 | 82 | > 1000 | > 1000 | 123 | 1.81 ± 0.31 | COc1ccc(C2C(C(=O)c3ccc4c(c3)OCCO4)=C(O)C(=O)N2CCCN2CCOCC2)cc1 (stereo not drawn) [compound 6, 6] |  |
